The values that follow come from patent US20230404893A1, “Oral Care Compositions Comprising Ascorbic Acid Derivatives” (Colgate-Palmolive Company, priority 2020, published 2023).

The nature of data set [1]: Color of toothpaste samples measured with a spectrophotometer (L*, a*, b*). The format is physicochemical. Particulars: basic toothpaste formulas with sodium ascorbyl phosphate, with/without sodium stearate. The method, then: To overcome this color issue, surfactants are added to the basic toothpaste formulas in combination with sodium ascorbyl phosphate. Table 15 describes one basic toothpaste formula, to which sodium ascorbyl phosphate and surfactants are added. Three surfactants, sodium stearate, sodium cocoyl glutamate and sodium lauryl isoethionate, are screened, alone and in different combinations with/without sodium ascorbyl phosphate.
Samples of basic toothpaste G with different amounts and combinations of surfactants with/without sodium ascorbyl phosphate are prepared and evaluated for color, as shown in Table 16. A high “b*” value indicates a more yellow color while a lower value indicates a more blue color. A high “L*” value indicates a whiter sample compared to a low “L*” value which indicates a darker sample. As can be observed in Table 16 samples without sodium stearate that incorporate sodium ascorbyl phosphate tends to increase the “b*” value, indicating a more yellow color. Samples that incorporate sodium stearate with sodium ascorbyl phosphate tend to have a relative reduction in “b*” value, indicating less yellow color.

Data set [2] can be described thus: Standard brushing study, Toothpaste F samples (starting L 57.3-66.3, twelve teeth per cell). More on the design: species or system bovine. Particulars: ΔW data of Table 14, Toothpaste F. How it is done: Bovine enamel teeth mounted individually in resin blocks are purchased and brushed with an abrasive paste until initial “L” values were 56-68. Trays are prepared for the brushing machine and each tray consists of six teeth mounted using 3D printed trays. Baseline optical measurements of the bovine teeth are taken using a spectrophotometer and the trays are loaded onto the brushing machine.
Toothbrushes are placed on the brushing machine by removing the head of a manual toothbrush from its handle. Slurry composed of 1:1 ratio by weight of test toothpaste to artificial saliva is prepared and added to each tray. The teeth are brushed for two minutes with 250 grams of pressure at 120 strokes per minute. After brushing is stopped, the slurry is removed and residual toothpaste is rinsed away with deionized water. The brushing treatment is repeated a total of 14 times and measurements are taken every 2 cycles. The teeth are then gently blotted with a paper towel to remove excess liquid and measurements are taken with the spectrophotometer. […] The “L”, “a”, and “b” values are determined and are used to calculate the change in whiteness “ΔW” for each tooth after the treatment. […]

Consider `O=C1O[C@H]([C@@H](O)CO)C([O-])=C1OP(=O)([O-])[O-].[Na+].[Na+].[Na+]` [sodium ascorbyl phosphate], for which the “color of the toothpaste (in words)” value in data set [1] is recorded as “observable yellow color”. In data set [2], the “whitening efficacy (in words)” value is listed as “significant effect on whitening efficacy”.
